Experimental data taken from ChEMBL document CHEMBL1139510, “Early absorption and distribution analysis of antitumor and anti-AIDS drugs: lipid membrane and plasma protein interactions” (J Med Chem, 2005).

Key:
Format in all cases: ADME
Albumin [1] = target: T1, Albumin (Homo sapiens, UniProt P02768); test: Association rate constant for the interaction between the compound and serum albumin
Albumin [2] = target: T1, Albumin; test: Equilibrium dissociation constant for the interaction between the compound and serum albumin
Albumin [3] = target: T1, Albumin; test: Dissociation rate constant for the interaction between the compound and serum albumin

T1 sequence (P02768 whole entry): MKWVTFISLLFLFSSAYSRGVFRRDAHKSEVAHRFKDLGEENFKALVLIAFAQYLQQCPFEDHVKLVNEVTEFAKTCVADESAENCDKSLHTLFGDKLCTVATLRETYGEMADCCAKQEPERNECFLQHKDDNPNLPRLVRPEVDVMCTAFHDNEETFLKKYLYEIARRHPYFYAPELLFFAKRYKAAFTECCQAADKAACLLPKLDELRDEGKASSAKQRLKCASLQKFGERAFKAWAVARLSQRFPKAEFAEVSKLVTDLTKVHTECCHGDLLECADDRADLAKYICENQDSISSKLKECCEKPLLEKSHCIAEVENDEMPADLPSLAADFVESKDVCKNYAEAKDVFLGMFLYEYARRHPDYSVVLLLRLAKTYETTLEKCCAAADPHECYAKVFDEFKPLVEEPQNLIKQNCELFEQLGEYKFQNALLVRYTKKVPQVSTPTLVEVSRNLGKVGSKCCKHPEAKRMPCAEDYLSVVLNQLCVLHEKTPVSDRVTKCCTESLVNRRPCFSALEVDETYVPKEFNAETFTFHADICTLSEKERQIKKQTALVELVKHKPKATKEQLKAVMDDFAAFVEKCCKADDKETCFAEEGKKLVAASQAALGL

Row | kon (Albumin [1]; read-out: Kon1) [M⁻¹ s⁻¹] | kon (Albumin [1]; read-out: Kon2) [M⁻¹ s⁻¹] | Kd (Albumin [2]; read-out: KD1) [µM] | Kd (Albumin [2]; read-out: KD2) [µM] | Koff1 (Albumin [3]) [s⁻¹] | Koff2 (Albumin [3]) [s⁻¹] | Compound
1 | 7700 | 43.7 | 199 | 2110 | 1.505 | 0.069 | CC(=O)O[C@@]12CO[C@@H]1C[C@H](O)[C@@]1(C)C(=O)[C@H](O)C3=C(C)[C@@H](OC(=O)[C@H](O)[C@@H](NC(=O)OC(C)(C)C)c4ccccc4)C[C@@](O)([C@@H](OC(=O)c4ccccc4)[C@H]21)C3(C)C.O.O.O [DOCETAXEL]
2 | 25900 | 10.1 | 24 | 6 | 0.619 |  | Cc1cccc(C)c1OCC(=O)N[C@@H](Cc1ccccc1)[C@@H](O)C[C@H](Cc1ccccc1)NC(=O)[C@H](C(C)C)N1CCCNC1=O [LOPINAVIR]
3 | 25000 | 282 | 34 | 301 | 0.856 | 0.085 | CC(C)(C)NC(=O)[C@@H]1C[C@@H]2CCCC[C@@H]2CN1C[C@@H](O)[C@H](Cc1ccccc1)NC(=O)[C@H](CC(N)=O)NC(=O)c1ccc2ccccc2n1
4 | 9600 | 41.8 | 149 | 599 | 1.43 | 0.025 | COC(=O)N[C@H](C(=O)N[C@@H](Cc1ccccc1)[C@@H](O)CN(Cc1ccc(-c2ccccn2)cc1)NC(=O)[C@@H](NC(=O)OC)C(C)(C)C)C(C)(C)C [ATAZANAVIR]
5 | 7300 | 36.4 | 192 | 1170 | 1.183 | 0.033 | CC(=O)O[C@H]1C(=O)[C@@]2(C)C([C@H](OC(=O)c3ccccc3)[C@]3(O)C[C@H](OC(=O)[C@H](O)[C@@H](NC(=O)c4ccccc4)c4ccccc4)C(C)=C1C3(C)C)[C@]1(OC(C)=O)CO[C@@H]1C[C@@H]2OC(=O)CCC(=O)O (stereo partly specified)
6 | 22100 | 208 | 124 | 328 | 2.75 | 0.068 | CC(C)CN(C[C@@H](O)[C@H](Cc1ccccc1)NC(=O)O[C@H]1CCOC1)S(=O)(=O)c1ccc(N)cc1
7 | 1800 | 12.6 | 230 | 6 | 0.413 |  | Cc1c(O)cccc1C(=O)N[C@@H](CSc1ccccc1)[C@H](O)CN1C[C@H]2CCCC[C@H]2C[C@H]1C(=O)NC(C)(C)C

Row | Compound | kon (Albumin [1]; read-out: Kon1) [M⁻¹ s⁻¹] | kon (Albumin [1]; read-out: Kon2) [M⁻¹ s⁻¹] | Kd (Albumin [2]; read-out: KD1) [µM] | Kd (Albumin [2]; read-out: KD2) [µM] | Koff1 (Albumin [3]) [s⁻¹] | Koff2 (Albumin [3]) [s⁻¹]
8 | CC(=O)O[C@@]1(C2/C(C)=C(/O)C(=O)C3=C(C)[C@@H](OC(=O)[C@H](O)[C@H](CC(C)C)NC(=O)OC(C)(C)C)C[C@@](O)([C@H]2OC(=O)c2ccccc2)C3(C)C)CO[C@@H]1CCO (stereo partly specified) | 5900 | 33.1 | 319 | 1820 | 1.875 | 0.045
